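All cell lines were grown in 96-well plates and treated with compound for 48 hours. TGI: total growth inhibition.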
Test system: NCI-H460 lung
Test: NCI anticancer screen, dose series, 48 h

| SMILES | TGI [µM] |
| --- | --- |
| S=C(/N=c1\sc(Nc2ccc(Cl)cc2)nc2sc3c(c12)CCN(N1CCc2c(sc4nc(Nc5ccc(Cl)cc5)s/c(=N\C(=S)Nc5ccc(Cl)cc5)c24)C1)C3)Nc1ccc(Cl)cc1 | > 100 |
| O=c1ccn(C2OC(CO)C(P(=O)(O)O)C2O)c(=O)[nH]1 (stereo unspecified) | > 100 |
| CCC1=CC2CN3Cn4c(c(COCc5c6n(c7ccccc57)CN5CC7C=C(CC)C5C6(C(=O)OC)C7)c5ccccc54)C(C(=O)OC)(C2)C13 | > 100 |
| O=C(Cc1ccccc1)NN1C(=O)/C(=C\c2ccccc2)SC1=Nc1ccccc1 | > 100 |
| COc1ccc(CC2c3c(cc(OC)c(OC)c3OC)CCN2C)cc1OC (stereo unspecified) | > 100 |

Test system: HCT-15 colon
Test: NCI anticancer screen, dose series, 48 h

| SMILES | TGI [µM] |
| --- | --- |
| CC12CCC3C(CCC4CC(OC(=O)Cc5ccc(N(CCCl)CCCl)cc5)CCC43C)C1CCC(=O)N2 (stereo unspecified) | 28.3 |
| CCN(CC)CCCNC(=O)c1ccc([N+](=O)[O-])cc1O | > 100 |
| CN(Cc1ccccc1)c1cc(=O)n(C)c(=O)[nH]1 | > 100 |
| COc1ccc(-c2c3c([nH]c(=S)c2C#N)CC(C)(C)CC3=O)cc1 | > 100 |
| CC(=O)Oc1cc(C(F)(F)F)ccc1C(=O)OC1(C)OC(=O)c2ccc(C(F)(F)F)cc2O1 (stereo unspecified) | > 100 |
| Cc1cn([C@@H]2C[C@H](CO)[C@@H](O)C2)c(=O)[nH]c1=O | > 100 |
| CC1CN=C(N(C(=O)Nc2ccc(F)c(Cl)c2)c2ccccc2)S1 (stereo unspecified) | 75.3 |
| O=c1[nH]cnc(NC2C=C(CO)C(O)C2O)c1[N+](=O)[O-] (stereo unspecified) | > 54.7 |
| O=C(NC(COC(=O)C(Cc1ccccc1)NC(=O)c1ccccc1)Cc1ccccc1)c1ccccc1 (stereo unspecified) | > 50 |
| CC(=O)OCC1OC(n2cc(I)c(=O)[nH]c2=O)C(OC(C)=O)C(OC(C)=O)C1OC(C)=O (stereo unspecified) | > 100 |
| COc1ccc(/C=C2\C[C@H]3[C@@H]4CCC5=C/C(=N/O)CC[C@]5(C)[C@H]4CC[C@]3(C)\C2=N\O)cc1OC | > 100 |
| C(=Nc1ccc(-c2nc3ccccc3o2)cc1)c1ccco1 | > 100 |
| CC(C(=O)N1C(=O)N(C(=O)C(C)C(O)c2ccccc2)C2CCCCC21)C(O)c1ccccc1 (stereo unspecified) | > 100 |
| O=C1NCCS(=O)(=O)N[C@@H](CC2=CC=CCC2)C(=O)N2CCCC12 (stereo partly specified) | > 100 |
| CC(C)=CCC/C(C)=C/COC(C)(C)C1=CCC(C)CC1 (stereo unspecified) (tested in a mixture with another compound) | > 100 |
| O=C(Nc1ccccc1F)c1cc2ccc(O)cc2oc1=Nc1ccccc1F | 6.28 |

| SMILES | TGI [µM] |
| --- | --- |
| N/C(=N\S(=O)(=O)c1c(C(F)(F)F)cccc1C(F)(F)F)Nc1ccc(Cl)cc1 | > 100 |
| Clc1ccc(CSCCc2ccncc2)cc1Cl | 56.7 |
| CC1(C)C2CC(=O)C1(C)C(O)C2Br (stereo unspecified) | > 100 |
| CC(C)(C)OC(=O)NCCC(N)=S | > 100 |
| CCCCn1cnc2c(c(CC#N)nn2-c2ccccc2)c1=N | > 100 |
| COc1ccc(-c2oc(/C=N/NC(N)=S)c([N+](=O)[O-])c2-c2ccc(OC)c(OC)c2)cc1OC | > 100 |
| CCN1CCCC(NCc2c3ccccc3c(CNC3CCCN(CC)C3)c3ccccc23)C1 (stereo unspecified) | 43.9 |
| COc1c(O)c2c3c(c(C)cc(O)c3c1O)C(=O)C(O)(C(C)(C)C(C)=O)C2=O (stereo unspecified) | > 100 |
| Nc1nc(N)c(N=O)c(Nc2ccc(Br)cc2)n1 | > 100 |
| C[C@]12CC[C@@H]3c4ccc(O)cc4CC[C@H]3[C@@H]1C/C(=C\c1ccncc1)[C@@H]2O | 33.3 |
| S=C(/N=c1\sc(Nc2ccc(Cl)cc2)nc2sc3c(c12)CCN(N1CCc2c(sc4nc(Nc5ccc(Cl)cc5)s/c(=N\C(=S)Nc5ccc(Cl)cc5)c24)C1)C3)Nc1ccc(Cl)cc1 | > 100 |
| O=c1ccn(C2OC(CO)C(P(=O)(O)O)C2O)c(=O)[nH]1 (stereo unspecified) | > 100 |
| CCC1=CC2CN3Cn4c(c(COCc5c6n(c7ccccc57)CN5CC7C=C(CC)C5C6(C(=O)OC)C7)c5ccccc54)C(C(=O)OC)(C2)C13 | > 100 |
| O=C(Cc1ccccc1)NN1C(=O)/C(=C\c2ccccc2)SC1=Nc1ccccc1 | > 100 |
| COc1ccc(CC2c3c(cc(OC)c(OC)c3OC)CCN2C)cc1OC (stereo unspecified) | > 100 |

Test system: NCI-H226 lung
Test: NCI anticancer screen, dose series, 48 h

| SMILES | TGI [µM] |
| --- | --- |
| Cn1ccnc1C(O)(c1nccn1C)c1nccn1C | > 100 |
| CC12CCC3C(CCC4CC(OC(=O)Cc5ccc(N(CCCl)CCCl)cc5)CCC43C)C1CCC(=O)N2 (stereo unspecified) | 30.1 |
| CCN(CC)CCCNC(=O)c1ccc([N+](=O)[O-])cc1O | > 100 |
| CN(Cc1ccccc1)c1cc(=O)n(C)c(=O)[nH]1 | > 100 |
| COc1ccc(-c2c3c([nH]c(=S)c2C#N)CC(C)(C)CC3=O)cc1 | > 100 |
| CC(=O)Oc1cc(C(F)(F)F)ccc1C(=O)OC1(C)OC(=O)c2ccc(C(F)(F)F)cc2O1 (stereo unspecified) | > 100 |
| COc1cc2c(cc1OC)[C@H]1CN3CCC[C@H]3C=C1c1ccc(OC)c(O)c1-2 | 0.0102 |
| Cc1cn([C@@H]2C[C@H](CO)[C@@H](O)C2)c(=O)[nH]c1=O | > 100 |
| C=Cc1ccc(C)[n+](C[Si](C)(C)O[Si](C)(C)C[n+]2cc(C=C)ccc2C)c1 | > 100 |
| O=c1[nH]cnc(NC2C=C(CO)C(O)C2O)c1[N+](=O)[O-] (stereo unspecified) | > 100 |
| CC(=O)OCC1OC(n2cc(I)c(=O)[nH]c2=O)C(OC(C)=O)C(OC(C)=O)C1OC(C)=O (stereo unspecified) | > 100 |
| COc1ccc(/C=C2\C[C@H]3[C@@H]4CCC5=C/C(=N/O)CC[C@]5(C)[C@H]4CC[C@]3(C)\C2=N\O)cc1OC | > 100 |
| O=C1NCCS(=O)(=O)N[C@@H](CC2=CC=CCC2)C(=O)N2CCCC12 (stereo partly specified) | > 100 |
| N/C(=N\S(=O)(=O)c1c(C(F)(F)F)cccc1C(F)(F)F)Nc1ccc(Cl)cc1 | > 100 |
| Clc1ccc(CSCCc2ccncc2)cc1Cl | 49.2 |
| CC1(C)C2CC(=O)C1(C)C(O)C2Br (stereo unspecified) | > 100 |
| CC(C)(C)OC(=O)NCCC(N)=S | > 100 |
| CCCCn1cnc2c(c(CC#N)nn2-c2ccccc2)c1=N | > 100 |
| COc1ccc(-c2oc(/C=N/NC(N)=S)c([N+](=O)[O-])c2-c2ccc(OC)c(OC)c2)cc1OC | 62.4 |
| CCN1CCCC(NCc2c3ccccc3c(CNC3CCCN(CC)C3)c3ccccc23)C1 (stereo unspecified) | 30 |
| COc1c(O)c2c3c(c(C)cc(O)c3c1O)C(=O)C(O)(C(C)(C)C(C)=O)C2=O (stereo unspecified) | 34.6 |
| Nc1nc(N)c(N=O)c(Nc2ccc(Br)cc2)n1 | 92.7 |
| C[C@]12CC[C@@H]3c4ccc(O)cc4CC[C@H]3[C@@H]1C/C(=C\c1ccncc1)[C@@H]2O | 42.1 |
| S=C(/N=c1\sc(Nc2ccc(Cl)cc2)nc2sc3c(c12)CCN(N1CCc2c(sc4nc(Nc5ccc(Cl)cc5)s/c(=N\C(=S)Nc5ccc(Cl)cc5)c24)C1)C3)Nc1ccc(Cl)cc1 | > 100 |
| O=c1ccn(C2OC(CO)C(P(=O)(O)O)C2O)c(=O)[nH]1 (stereo unspecified) | > 100 |
| CCC1=CC2CN3Cn4c(c(COCc5c6n(c7ccccc57)CN5CC7C=C(CC)C5C6(C(=O)OC)C7)c5ccccc54)C(C(=O)OC)(C2)C13 | > 100 |
| O=C(Cc1ccccc1)NN1C(=O)/C(=C\c2ccccc2)SC1=Nc1ccccc1 | > 100 |

Test system: MDA-MB-435
Test: NCI anticancer screen, dose series, 48 h

| SMILES | TGI [µM] |
| --- | --- |
| CN(Cc1ccccc1)c1cc(=O)n(C)c(=O)[nH]1 | > 100 |
| CC(=O)Oc1cc(C(F)(F)F)ccc1C(=O)OC1(C)OC(=O)c2ccc(C(F)(F)F)cc2O1 (stereo unspecified) | > 100 |
| COc1cc2c(cc1OC)[C@H]1CN3CCC[C@H]3C=C1c1ccc(OC)c(O)c1-2 | 0.0269 |
| O=C(NC(COC(=O)C(Cc1ccccc1)NC(=O)c1ccccc1)Cc1ccccc1)c1ccccc1 (stereo unspecified) | > 50 |
| COc1ccc(/C=C2\C[C@H]3[C@@H]4CCC5=C/C(=N/O)CC[C@]5(C)[C@H]4CC[C@]3(C)\C2=N\O)cc1OC | > 100 |
| C(=Nc1ccc(-c2nc3ccccc3o2)cc1)c1ccco1 | > 100 |
| CC(C)=CCC/C(C)=C/COC(C)(C)C1=CCC(C)CC1 (stereo unspecified) (tested in a mixture with another compound) | > 100 |
| O=C(Nc1ccccc1F)c1cc2ccc(O)cc2oc1=Nc1ccccc1F | 4.24 |
| Clc1ccc(CSCCc2ccncc2)cc1Cl | 49.5 |
| CC1(C)C2CC(=O)C1(C)C(O)C2Br (stereo unspecified) | > 100 |
| CC(C)(C)OC(=O)NCCC(N)=S | > 100 |
| CCCCn1cnc2c(c(CC#N)nn2-c2ccccc2)c1=N | > 100 |
| C[C@]12CC[C@@H]3c4ccc(O)cc4CC[C@H]3[C@@H]1C/C(=C\c1ccncc1)[C@@H]2O | > 100 |
| O=C(Cc1ccccc1)NN1C(=O)/C(=C\c2ccccc2)SC1=Nc1ccccc1 | > 100 |

Test system: M14 melanoma
Test: NCI anticancer screen, dose series, 48 h

| SMILES | TGI [µM] |
| --- | --- |
| Cn1ccnc1C(O)(c1nccn1C)c1nccn1C | > 100 |
| CC12CCC3C(CCC4CC(OC(=O)Cc5ccc(N(CCCl)CCCl)cc5)CCC43C)C1CCC(=O)N2 (stereo unspecified) | 32.2 |
| CCN(CC)CCCNC(=O)c1ccc([N+](=O)[O-])cc1O | > 100 |
| CN(Cc1ccccc1)c1cc(=O)n(C)c(=O)[nH]1 | > 100 |
| COc1ccc(-c2c3c([nH]c(=S)c2C#N)CC(C)(C)CC3=O)cc1 | > 100 |
| CC(=O)Oc1cc(C(F)(F)F)ccc1C(=O)OC1(C)OC(=O)c2ccc(C(F)(F)F)cc2O1 (stereo unspecified) | > 100 |
| COc1cc2c(cc1OC)[C@H]1CN3CCC[C@H]3C=C1c1ccc(OC)c(O)c1-2 | 0.000985 |
| Cc1cn([C@@H]2C[C@H](CO)[C@@H](O)C2)c(=O)[nH]c1=O | > 100 |
| CC1CN=C(N(C(=O)Nc2ccc(F)c(Cl)c2)c2ccccc2)S1 (stereo unspecified) | 75.5 |
| C=Cc1ccc(C)[n+](C[Si](C)(C)O[Si](C)(C)C[n+]2cc(C=C)ccc2C)c1 | > 100 |
| O=c1[nH]cnc(NC2C=C(CO)C(O)C2O)c1[N+](=O)[O-] (stereo unspecified) | > 100 |
| O=C(NC(COC(=O)C(Cc1ccccc1)NC(=O)c1ccccc1)Cc1ccccc1)c1ccccc1 (stereo unspecified) | > 50 |
| CC(=O)OCC1OC(n2cc(I)c(=O)[nH]c2=O)C(OC(C)=O)C(OC(C)=O)C1OC(C)=O (stereo unspecified) | > 100 |
| COc1ccc(/C=C2\C[C@H]3[C@@H]4CCC5=C/C(=N/O)CC[C@]5(C)[C@H]4CC[C@]3(C)\C2=N\O)cc1OC | > 100 |
| C(=Nc1ccc(-c2nc3ccccc3o2)cc1)c1ccco1 | > 100 |
| CC(C(=O)N1C(=O)N(C(=O)C(C)C(O)c2ccccc2)C2CCCCC21)C(O)c1ccccc1 (stereo unspecified) | > 100 |
| O=C1NCCS(=O)(=O)N[C@@H](CC2=CC=CCC2)C(=O)N2CCCC12 (stereo partly specified) | > 100 |
| CC(C)=CCC/C(C)=C/COC(C)(C)C1=CCC(C)CC1 (stereo unspecified) (tested in a mixture with another compound) | > 100 |
| O=C(Nc1ccccc1F)c1cc2ccc(O)cc2oc1=Nc1ccccc1F | 5.57 |
| N/C(=N\S(=O)(=O)c1c(C(F)(F)F)cccc1C(F)(F)F)Nc1ccc(Cl)cc1 | > 100 |
| Clc1ccc(CSCCc2ccncc2)cc1Cl | 32.5 |
| CC1(C)C2CC(=O)C1(C)C(O)C2Br (stereo unspecified) | > 100 |
| CC(C)(C)OC(=O)NCCC(N)=S | > 100 |
| CCCCn1cnc2c(c(CC#N)nn2-c2ccccc2)c1=N | > 100 |
| COc1ccc(-c2oc(/C=N/NC(N)=S)c([N+](=O)[O-])c2-c2ccc(OC)c(OC)c2)cc1OC | 67.9 |
| COc1c(O)c2c3c(c(C)cc(O)c3c1O)C(=O)C(O)(C(C)(C)C(C)=O)C2=O (stereo unspecified) | > 100 |
| Nc1nc(N)c(N=O)c(Nc2ccc(Br)cc2)n1 | 52.8 |
| C[C@]12CC[C@@H]3c4ccc(O)cc4CC[C@H]3[C@@H]1C/C(=C\c1ccncc1)[C@@H]2O | > 100 |
| S=C(/N=c1\sc(Nc2ccc(Cl)cc2)nc2sc3c(c12)CCN(N1CCc2c(sc4nc(Nc5ccc(Cl)cc5)s/c(=N\C(=S)Nc5ccc(Cl)cc5)c24)C1)C3)Nc1ccc(Cl)cc1 | > 100 |
